These results are taken from article PMC7114316 (Antiviral Research, 2019).

Like-named read-outs stand apart in the source and are kept apart here.

One data set concerns the target FIPV 3CL^pro (Feline coronavirus, UniProt Q98VG9). Kind of data set: FIPV 3CLpro protease inhibition assay. The conditions noted are these: for IC50: 35 nM enzyme, 6 μM fluorogenic substrate. In kind it is biochemical, feline infectious peritonitis virus (FIPV strain 79–1146).
In a further data set the test system is CRFK cells. Kind of data set: Cytotoxicity assay. As to conditions: read-out: Cytotoxicity CC50, 48 h, MTS assay. In kind it is cell-based, feline.
The test system of data set [1] is FIPV strain 79–1146. Kind of data set: Antiviral assay, pre-viral entry activity. The format is cell-based, feline infectious peritonitis virus. As to conditions: for EC50: read-out: Pre-viral entry EC50, IPMA, 24 h; for Pre-viral entry SI: SI = CC50/EC50.
Data set [2] has as its system FIPV strain 79–1146. Briefly: Antiviral assay, post-viral entry activity. In kind it is cell-based, feline infectious peritonitis virus. The conditions noted are these: for EC50: read-out: Post-viral entry EC50, IPMA; for Post-viral entry SI: SI = CC50/EC50.
Data set [3] relates to FIPV strain 79–1146. Briefly: Antiviral assay, prophylactic activity. The format is cell-based, feline infectious peritonitis virus. As to conditions: for EC50: read-out: Prophylactic antiviral activity EC50, IPMA; for Prophylactic antiviral activity SI: SI = CC50/EC50; for concentration that completely protects the cells from virus infection: prophylactic or protective activity.

Data set [4] concerns FIPV strain 79–1146. Briefly: Antiviral assay in FIPV-infected CRFK cells, summary over the test conditions. The format is cell-based, feline infectious peritonitis virus. As to conditions: for control of FIPV infection under all the tested conditions: result in words; for EC50: Alphacoronavirus 1, CRFK, read-out: EC50, range over antiviral test conditions.
A further data set can be described thus: Cytotoxicity assay. In kind it is cell-based, feline. As to conditions: cat, CRFK cells.
The subject of another data set is 3CL^pro of SARS-CoV. The conditions noted are these: read-out: IC50, 3CL^pro of SARS-CoV; cited from earlier work.
The target in another data set is HIV-1 integrase. The conditions noted are these: read-out: IC50, anti-HIV-1 integrase activities; ref Neamati et al., 1997; cited from earlier work.
Where [5] appears, read: read-out: Protease inhibition assay (IC50).
The mark [6] stands for this setting: 100 TCID50 FIPV incubation with compounds, CRFK cells.
The mark [7] stands for this setting: 100 TCID50 FIPV adsorption at 37 °C for 2 h before adding the tested compounds, CRFK cells.
[8] abbreviates: compound incubation at 37 °C for 2 h before inoculation with FIPV at 100 TCID50/well, CRFK cells.
Where [9] appears, read: Protease inhibition assay (IC50).

Sequence of FIPV 3CL^pro (Q98VG9 2904-3205 limits assumed): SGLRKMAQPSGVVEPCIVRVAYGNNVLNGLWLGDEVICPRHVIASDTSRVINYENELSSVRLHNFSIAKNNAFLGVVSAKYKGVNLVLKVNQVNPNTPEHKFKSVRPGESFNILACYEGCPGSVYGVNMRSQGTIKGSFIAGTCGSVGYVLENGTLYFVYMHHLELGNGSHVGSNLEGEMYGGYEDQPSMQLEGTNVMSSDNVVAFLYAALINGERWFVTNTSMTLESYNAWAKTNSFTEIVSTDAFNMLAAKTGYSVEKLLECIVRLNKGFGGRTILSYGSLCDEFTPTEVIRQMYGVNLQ

Turning to `C=C1C[C@@]23CC[C@H]4[C@@](C)(CCC[C@@]4(C)C(=O)O)[C@@H]2CC[C@]1(O)C3` [CID452967], the IC50 on FIPV 3CL^pro (setting [5]) is greater than 500 µM.
On to `O=C1C(=O)N(Cc2ccc(Cc3ccc(CN4C(=O)C(=O)c5ccccc54)cc3)cc2)c2ccccc21` [CID3821945], for which the IC50 on FIPV 3CL^pro (setting [5]) came to 10.3 ± 2.5 µM. The CC50 with CRFK cells was 306.8 ± 0.175 µM. In addition, the EC50 in the data set with FIPV strain 79–1146 [1] (setting [6]) is greater than 100 µM; in the data set on FIPV strain 79–1146 [2] (setting [7]) it was greater than 100 µM; in the data set with FIPV strain 79–1146 [3] (setting [8]) it was greater than 200 µM. For the same compound, the “control of FIPV infection under all the tested conditions” value (from here on “control of FIPV infection”) in the data set with FIPV strain 79–1146 [4] is on record as “could not control FIPV infection”.
As to `COc1cc(O)c2c(=O)cc(-c3ccc(O)c(O)c3)oc2c1` [CID5318214], the IC50 at FIPV 3CL^pro (setting [5]) amounted to 28.5 ± 4.2 µM. In addition, in the data set on CRFK cells, the CC50 came out at 339.3 ± 0.03 µM. In addition, the figures for the EC50 with FIPV strain 79–1146 [1] (setting [6]), in the data set with FIPV strain 79–1146 [2] (setting [7]) and in the data set on FIPV strain 79–1146 [3] (setting [8]) were greater than 100 µM, greater than 100 µM and greater than 200 µM, respectively. Besides, in the data set on FIPV strain 79–1146 [4], the “control of FIPV infection” value is reported as “could not control FIPV infection”.
With `Cc1ccc(S(=O)(=O)N/N=C\C=C\c2ccccc2)cc1` [CID5372747], the IC50 at FIPV 3CL^pro (setting [5]) was found to be 78.4 ± 2.6 µM. Besides, the CC50 in the data set with CRFK cells turned out to be 336.2 ± 0.13 µM. In addition, the concentration for a half-maximal effect (EC50) in the data set with FIPV strain 79–1146 [1] (setting [6]) was greater than 100 µM; in the data set on FIPV strain 79–1146 [2] (setting [7]) it was greater than 200 µM; in the data set on FIPV strain 79–1146 [3] (setting [8]), greater than 200 µM. The “control of FIPV infection” value in the data set on FIPV strain 79–1146 [4] is “could not control FIPV infection”.
In the case of `C[C@@H]1O[C@@H](Oc2cc(O)c3c(=O)c(O)c(-c4ccc(O)c(O)c4)oc3c2)[C@H](O)[C@H](O)[C@H]1O` [CID5748601], the IC50 at FIPV 3CL^pro (setting [5]) worked out at 77.2 ± 13.8 µM. In addition, the CC50 with CRFK cells came to 425.3 ± 0.13 µM. Moreover, the EC50 in the data set with FIPV strain 79–1146 [1] (setting [6]) was greater than 100 µM; in the data set on FIPV strain 79–1146 [2] (setting [7]) it was greater than 100 µM; in the data set on FIPV strain 79–1146 [3] (setting [8]) it was greater than 200 µM. Besides, the “control of FIPV infection” value in the data set on FIPV strain 79–1146 [4] is on record as “could not control FIPV infection”.
For the compound `O=c1cc(-c2ccc(O)c(O)c2)oc2cc(OCc3ccccc3)cc(O)c12` [CID71313853], the IC50 at FIPV 3CL^pro (setting [5]) is greater than 500 µM.
Regarding `Cc1cccc(C)c1OCC(=O)N[C@@H](Cc1ccccc1)[C@@H](O)C[C@H](Cc1ccccc1)NC(=O)[C@H](C(C)C)N1CCCNC1=O` [Lopinavir, reference compound], the CC50 at 48 h in the data set “Cytotoxicity assay” was greater than 500 µM. Also, the EC50 with FIPV strain 79–1146 [1] (Alphacoronavirus 1, CRFK) was 8.56 ± 0.47 µM; with FIPV strain 79–1146 [2] (Alphacoronavirus 1, CRFK), 5.38 ± 2.32 µM; in the data set with FIPV strain 79–1146 [3] (Alphacoronavirus 1, CRFK), 31.7 ± 1.37 µM; in the data set with FIPV strain 79–1146 [4], 5.38 to 31.7 µM. The “Pre-viral entry SI” value with FIPV strain 79–1146 [1] is 61.52. For the same compound, the “Post-viral entry SI” value in the data set on FIPV strain 79–1146 [2] is 97.83. The “Prophylactic antiviral activity SI” value with FIPV strain 79–1146 [3] was determined as 16.61. The IC50 in the data set with 3CL^pro of SARS-CoV is roughly 50 µM.
`CC[C@](C)(O)C(=O)O[C@H]1C(=O)O[C@@H]2C[C@H]3C(C)=C[C@H](O)[C@@H](O)[C@]3(C)[C@H]3[C@]4(O)OC[C@]32[C@@H]1[C@@H](C)[C@H]4O` [NSC14975] yielded an IC50 against FIPV 3CL^pro (setting [9]) greater than 500 µM.
`O=C1c2cc(O)c(O)cc2OC(c2ccc(O)c(O)c2)C1O` (centres unmarked) [NSC36398]: the IC50 at FIPV 3CL^pro (setting [5]) was greater than 500 µM.
Same read-out and setting: under `C[C@]1(O)CC[C@H]2[C@@H]3CC[C@H]4C[C@@H](O)CC[C@]4(C)[C@@]3(F)[C@@H](O)C[C@@]21C` [NSC38273] stands greater than 500 µM.
On FIPV 3CL^pro (Ki value, competitive inhibition, 35 nM FIPV 3CL^pro, substrate 3 to 40 μM), `COc1cc(C)c2c(c1C=O)Oc1c(c(C)c(O)c3c1C(O)OC3=O)OC2=O` (centres unmarked) [NSC87511, Stictic acid] had a Ki of 17 ± 1.8 µM. The IC50 at FIPV 3CL^pro (setting [9]) is 29.4 ± 4.6 µM; at HIV-1 integrase it was less than 50 µM. For the same compound, in the data set “Cytotoxicity assay”, half-maximal cytotoxicity (CC50 at 48 h) was put at 371.9 ± 0.26 µM. Also, the EC50 stood at 16.2 ± 1.33 µM in the data set on FIPV strain 79–1146 [1] (Alphacoronavirus 1, CRFK); 21.8 ± 1.64 µM in the data set on FIPV strain 79–1146 [2] (Alphacoronavirus 1, CRFK); 26.9 ± 1.25 µM with FIPV strain 79–1146 [3] (Alphacoronavirus 1, CRFK). In the data set with FIPV strain 79–1146 [1], the “Pre-viral entry SI” value was 22.90. For the same compound, in the data set with FIPV strain 79–1146 [2], the “Post-viral entry SI” value worked out at 17.04. The “Prophylactic antiviral activity SI” value in the data set on FIPV strain 79–1146 [3] is 13.80. Also, the “concentration that completely protects the cells from virus infection” value in the data set on FIPV strain 79–1146 [3] (CRFK cells) lay in the range of 20 to 50 µM.
For the compound `CC[C@H]1CN2CCc3cc(OC)c(OC)cc3[C@@H]2C[C@@H]1C[C@H]1NCCc2c1[nH]c1ccc(O)cc21` [NSC131547], the IC50 on FIPV 3CL^pro (setting [5]) was greater than 500 µM.
Still for that read-out and setting: under `C/C(=C\COc1ccc2ccc(=O)oc2c1)C1=CC(=O)C(C)(C)O1` [NSC142227] stands greater than 500 µM; under `CC(=O)O[C@@H]1[C@@H](O)C2=C3[C@]4(C)[C@@H]1C(C)(C)C(=O)C[C@@H]4[C@]3(O)[C@H](OC(C)=O)[C@@]1(C[C@@H]1C)C2=O` [NSC270914], greater than 500 µM.
`CO[C@H]1C[C@@H]2\C=C(C)/C=C/C=C\C(=O)N[C@H](c3ccccc3)C/C=C/CC[C@H](O)CC(=O)C2=C1O` [NSC343256, Hitachimycin]: on FIPV 3CL^pro (setting [5]), the IC50 was 24.5 ± 8.9 µM. The CC50 in the data set with CRFK cells was determined as 56.9 ± 0.73 µM. In addition, the “Pre-viral entry SI” value in the data set with FIPV strain 79–1146 [1] is recorded as 2.89. Moreover, the figures for the EC50 in the data set with FIPV strain 79–1146 [1] (setting [6]), in the data set with FIPV strain 79–1146 [2] (setting [7]) and in the data set with FIPV strain 79–1146 [3] (setting [8]) were 3.83 ± 0.44 µM, 4 ± 0.37 µM and 16.2 ± 1.23 µM, respectively. Further, the “Post-viral entry SI” value in the data set with FIPV strain 79–1146 [2] is on record as 2.77. The “concentration that completely protects the cells from virus infection” value in the data set on FIPV strain 79–1146 [3] (CRFK cells) was 20 to 50 µM.
As to `CC1Oc2cc3c(-c4c(O)cc(O)c5c(O)c6c(cc45)OC(C)C(C)C6=O)c(O)cc(O)c3c(O)c2C(=O)C1C` (centres unmarked) [NSC345647, Chaetochromin], the IC50 at FIPV 3CL^pro (setting [5]) is 6.3 ± 2.1 µM. The CC50 in the data set with CRFK cells came to 10.5 ± 0.13 µM. Moreover, the “Pre-viral entry SI” value in the data set on FIPV strain 79–1146 [1] was 8.88. In addition, the EC50 with FIPV strain 79–1146 [1] (setting [6]) worked out at 1.19 ± 0.95 µM; in the data set on FIPV strain 79–1146 [2] (setting [7]), 4.87 ± 0.12 µM; in the data set on FIPV strain 79–1146 [3] (setting [8]), 2.85 ± 0.52 µM. Also, the “Post-viral entry SI” value in the data set on FIPV strain 79–1146 [2] is reported as 2.20. The “Prophylactic antiviral activity SI” value in the data set on FIPV strain 79–1146 [3] was 3.69. Also, the “concentration that completely protects the cells from virus infection” value in the data set with FIPV strain 79–1146 [3] (CRFK cells) was 20 to 50 µM.
Regarding `NC(=O)c1ncn([C@@H]2O[C@H](CO)[C@@H](O)[C@H]2O)n1` [Ribavirin, reference compound], in the data set “Cytotoxicity assay”, the CC50 at 48 h was greater than 500 µM. For the same compound, the EC50 is 48.9 ± 1.77 µM with FIPV strain 79–1146 [1] (Alphacoronavirus 1, CRFK); 73.98 ± 0.18 µM in the data set on FIPV strain 79–1146 [2] (Alphacoronavirus 1, CRFK); greater than 200 µM in the data set on FIPV strain 79–1146 [3] (Alphacoronavirus 1, CRFK); 48.9 to 74 µM with FIPV strain 79–1146 [4]. In the data set with FIPV strain 79–1146 [1], the “Pre-viral entry SI” value was 25.68. Also, the “Post-viral entry SI” value with FIPV strain 79–1146 [2] turned out to be 16.96. Besides, the “antiviral effect in the prophylaxis study” value with FIPV strain 79–1146 [3] (result in words) is given as “did not show an antiviral effect”.

As usually defined, the IC50 is the concentration that inhibits the measured activity by half. Broadly, the CC50 is the concentration giving 50% cytotoxicity. Usually EC50 stands for the concentration needed to bring the measured effect to its halfway point. For orientation: Ki means the equilibrium dissociation constant of an inhibitor or competing ligand from its target. A lower Ki goes with tighter binding.
